Read-outs that look alike come from different tables or passages of the source.
Tests used:
[1] = system: acid phosphatase yeast mutant YMR4; experiment: Salvage pathway experiments in yeast (turbidity); format: cell-based, Saccharomyces cerevisiae; conditions: added to media with cycloheximide; 72 hours
Method: All cell lines were grown in liquid media either containing drug (for the drug selected lines) or not containing drug (for the non-drug selected lines). When the cultures reached a turbidity of 1.00 as measured at a wavelength of 600 in a spectrophotometer (OD600=1.00), 10 μl of each culture was then removed and placed in either media with nothing added, 3 mM potassium phosphate; 3 mM adenosine; 9 mM potassium phosphate and 3 mM adenosine (for controls); potassium phosphate and cycloheximide; adenosine and cycloheximide; adenosine, cycloheximide, and potassium phosphate. Cell cultures were further grown for 72 hours, and their turbidity was determined by OD600 readings on a spectrophotometer. Growth of cell lines for nigericin experiments: Drug selected lines were removed from cycloheximide containing plates and placed in 5 ml liquid media containing 5 ng/ml cycloheximide. Cell cultures were allowed to grow until they reached an OD600 reading of 1.00, and then 10 μl from each culture was removed and transferred to culture tubes containing 5 ml of liquid media and 25 μg/ml nigericin. OD600 readings were recorded daily for a period of up to 72 hours to determine growth.

[2] = system: YMR4 yeast mutant deficient in two major extracellular phosphatases; experiment: Yeast drug selection growth assay; format: cell-based, Saccharomyces cerevisiae
Method: (§1) Yeast were grown at 30 C under conditions of constant selection for uracil auxotrophy. YNB (BiolOl, Vista, Calif.) supplemented with CSM (uracil dropout) and 2% glucose was used to grow strains having pVT101 constructs. Cycloheximide (Sigma Chemical, St. Louis, Mo.) was added to liquid media or spread on solid media to achieve a final concentration of 500 ng/ml. Nigericin (Sigma Chemical, St. Louis, Mo.) was added to liquid media or spread on solid media to achieve a final concentration of 25 μg/ml. Yeast strains used in cycloheximide selection assays were always propagated in the presence of the cycloheximide on plates and then streaked onto new plates containing drug or no drug, such that induced resistance existed in each strain at the time of the start of the assay. For selection assays on plates, single colonies were streaked; for selection in liquid media 0.01 ml of saturated culture was added to fresh media containing the drug. The plates shown in figures were grown for 3-5 days before photographs were taken. Yeast selection assays in liquid media were quantitated by turbidity as measured by absorbance at OD600.

[3] = system: Arabidopsis thaliana WS wild-type plants; experiment: Increasing plant sensitivity to herbicides (adjuvant test); format: in vivo; conditions: surflan with compound of Formula II at 5 μg/ml versus surflan alone
Method: Arabidopsis thaliana WS wild-type plants were plated on germination media containing two commonly used herbicides, surflan and pendimethalin, in the presence and absence of an ecto-phosphatase inhibitor of Formula II and monitored for their growth in a 22° C. incubator under constant fluorescent illumination.
More specifically, germination media was prepared containing 20 μl/ml, 10 μl/ml, 2 μl/ml, 1 μl/ml, and 0.2 μl/ml of a surflan solution made at the manufacturer's recommended concentration. Compound of Formula II was added to a portion of the germination media at a final concentration of 5 μg/ml.
Arabidopsis thaliana WS wild-type seeds were surface sterilized in a 20% bleach solution for 20 minutes, washed three times in double distilled waster, and resuspended in 0.1% agarose solution. The seeds were then pipetted onto plates containing approximately 3 ml of germination media containing the various concentrations of surflan with and without compound of Formula II. All plates were placed in a 22° C. incubator under constant fluorescent illumination. Growth was assessed daily.

[4] = system: wild-type Arabidopsis thaliana plants; experiment: Arabidopsis germination selection assay; format: in vivo; conditions: cycloheximide 500 ng/ml alone or phosphatase inhibitor 1 mM alone, after 10-20 days
Method: (§2) Arabidopsis seeds were sown in a solid germination media containing MS salts (Sigma Chemical, St. Louis, Mo.), 2% sucrose, 0.8% agar, and vitamins (Valvekens, D. et al., […], Proc. Natl. Acad. Sci. USA 85:5536-5540). For selection assays, one of the following, or a combination of both, was added to media (cooled to less than 50° C. before adding) immediately prior to pouring into plates: cycloheximide at a final concentration of 500 ng/ml; α,β-methyleneadenosine 5′-diphosphate at a final concentration of 1 mM. Plant growth was measured by germination percentage after 10-20 days. All other materials and methods were iscussed above in Example 2.

[5] = system: AtPGP-1 overexpressing (MDR OE) Arabidopsis thaliana plants; format: in vivo; conditions: AtPGP-1 overexpressing plants; cycloheximide 500 ng/ml alone or phosphatase inhibitor 1 mM alone; after 10-20 days
Method: as §2

[6] = system: wild-type yeast strain INVSC1; experiment: Yeast drug selection growth assay; format: cell-based, Saccharomyces cerevisiae; conditions: cycloheximide 500 ng/ml
Method: as §1

[7] = system: yeast cells (YMR4 and INVSC, with or without AtPGP-1); format: cell-based, Saccharomyces cerevisiae; conditions: 100 mM ATP, 48 hours
Method: To create drug resistant yeast strains, all four cell lines were grown up in the presence of 500 ng/ml of cycloheximide, and transferred to other cycloheximide containing plates after a period of four to six days. This transfer of cell lines and subculturing continued such that the yeast cells grew in the presence of cycloheximide for a period of at least a month.
Cells cultured in media alone: To create cell lines that had not been preselected for their ability to grow in drug, yeast strains were grown on plates containing YNB (Bio101, Vista, Calif.) without uracil (-URA) to maintain the presence of the vector (which supplies URA) without any drugs added.
Cells were transferred into 5 ml YNB -URA liquid media for turbidity measurements. All cell lines (both non-drug selected and drug-selected) were grown in media with the addition of either nothing, 500 ng/ml cycloheximide, 100 mM ATP, or 500 ng/ml cycloheximide and 100 mM ATP. Turbidity readings were taken after 48 hours.

[8] = system: wild-type yeast strain INVSC with plasmid pvt101-U; experiment: Increasing yeast sensitivity to fungicide (filter disk zone of inhibition); format: cell-based, Saccharomyces cerevisiae; conditions: 48 hours
Method: Additional experiment were performed to test the ability of ecto-phosphatase inhibitors to increase the effectiveness of the commonly used fungicide chlorothalonil. Yeast was plated on media with or without an ecto-phosphatase inhibitor of Formula X where a paper filter disk soaked in the fungicide was added to the plate. After 48 hours, the zone of inhibition of yeast growth around the filter disk was calculated.
The wild-type yeast strain INVSC with plasmid pvt101-U (for selection on media lacking uracil) was used in all experiments and each experiment was performed in triplicate. Media used was made by combining YNB (Bio 101, Vista, Calif.), the drop out supplement CSM-URA (Bio 101, Vista, Calif.), and glucose in water. […]
Twenty μl of an overnight saturated culture of yeast was plated onto each plate, spread, and allowed to dry for 20 minutes. […] The zone of inhibition of yeast growth around the disk was assessed after 48 hours.
Plates with chlorothalonil disks indeed contained a zone of inhibition surrounding the disk. […] The zone of inhibition was calculated by measuring the radius from the center of the disk to the point of noticeable yeast growth (at least 10 measurements per plate), averaging the radii measurements, and using the average radius of the plates to calculate the circular area of the zone of inhibition.

SMILES: O=P(O)(O)O [phosphate, potassium phosphate]
- effect on growth of cells overexpressing AtPGP-1 in drug [1]: slightly inhibitory
- effect on resistance to cycloheximide [1]: did not enhance resistance

SMILES: CO[C@@H]1C[C@@H](C[C@H]2CC[C@H](C)[C@H]([C@@H](C)C(=O)O)O2)O[C@]2(O[C@](C)([C@H]3CC[C@@](C)([C@@H]4O[C@@H]([C@H]5O[C@@](O)(CO)[C@H](C)C[C@@H]5C)C[C@@H]4C)O3)C[C@H]2C)[C@@H]1C [nigericin]
- growth in drug ([2]; nigericin 25 μg/ml, YMR4 containing vector alone): reduced growth

SMILES: Cc1cccc(NS(=O)(=O)c2ccc(-c3ccccc3)cc2)c1 [Formula II]
- surflan concentration at which it is an equally effective weed killer [3]: five fold less concentration

SMILES: C[C@@H]1C[C@@H]([C@H](O)CC2CC(=O)NC(=O)C2)C(=O)[C@@H](C)C1 [cycloheximide]
- germination rate [4]: 2%
- germination rate [5]: 50%
- growth in drug ([2]; cycloheximide 500 ng/ml): did not grow
- growth in drug [6]: did grow

SMILES: Nc1ncnc2c1ncn2[C@@H]1O[C@H](COP(=O)(O)CP(=O)(O)O)[C@@H](O)[C@H]1O [α,β-methyleneadenosine 5′-diphosphate]
- germination rate [4]: 90%
- germination rate [5]: 83%

SMILES: Nc1ncnc2c1ncn2[C@@H]1O[C@H](COP(=O)(O)OP(=O)(O)OP(=O)(O)O)[C@@H](O)[C@H]1O [ATP]
- growth in high levels of ATP ([7]; cells not previously selected in drug): able to grow
- growth in high levels of ATP ([7]; cells previously grown in cycloheximide, not overexpressing AtPGP-1): not able to grow

SMILES: N#Cc1c(Cl)c(Cl)c(Cl)c(C#N)c1Cl [chlorothalonil]
- area of inhibition ([8]; chlorothalonil by itself): 0.35 in^2
- average radius of inhibition ([8]; chlorothalonil disk, plates without ecto-phosphatase inhibitor): 0.33 in.

SMILES: Nc1ncnc2c1ncn2[C@@H]1O[C@H](CO)[C@@H](O)[C@H]1O [adenosine]
- effect on growth of cells overexpressing AtPGP-1 in drug [1]: slightly inhibitory
- effect on resistance to cycloheximide [1]: did not enhance resistance
